Reference: ChEMBL document CHEMBL5518197, “Recent advances in the development of deubiquitinases inhibitors as antitumor agents” (Eur J Med Chem, 2024)
One block for each compound: values may come before it.

Tests used:
Caspase-3 = molecular target: T1, Caspase-3 (Homo sapiens, UniProt P42574); assay: Inhibition of caspase-3 (unknown origin) by microplate reader analysis
T1 sequence (P42574 whole entry): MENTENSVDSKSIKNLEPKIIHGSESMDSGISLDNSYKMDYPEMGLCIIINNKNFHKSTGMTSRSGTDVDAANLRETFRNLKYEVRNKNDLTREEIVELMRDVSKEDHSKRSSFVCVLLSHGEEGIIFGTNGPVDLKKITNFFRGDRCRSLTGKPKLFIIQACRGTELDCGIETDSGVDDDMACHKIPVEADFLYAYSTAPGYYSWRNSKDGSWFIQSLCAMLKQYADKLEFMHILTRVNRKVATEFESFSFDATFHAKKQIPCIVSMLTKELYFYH

[1] = molecular target: T2, Ubiquitin carboxyl-terminal hydrolase 28 (Homo sapiens, UniProt Q96RU2); assay: Inhibition of USP28 (unknown origin)
T2 sequence (Q96RU2 whole entry): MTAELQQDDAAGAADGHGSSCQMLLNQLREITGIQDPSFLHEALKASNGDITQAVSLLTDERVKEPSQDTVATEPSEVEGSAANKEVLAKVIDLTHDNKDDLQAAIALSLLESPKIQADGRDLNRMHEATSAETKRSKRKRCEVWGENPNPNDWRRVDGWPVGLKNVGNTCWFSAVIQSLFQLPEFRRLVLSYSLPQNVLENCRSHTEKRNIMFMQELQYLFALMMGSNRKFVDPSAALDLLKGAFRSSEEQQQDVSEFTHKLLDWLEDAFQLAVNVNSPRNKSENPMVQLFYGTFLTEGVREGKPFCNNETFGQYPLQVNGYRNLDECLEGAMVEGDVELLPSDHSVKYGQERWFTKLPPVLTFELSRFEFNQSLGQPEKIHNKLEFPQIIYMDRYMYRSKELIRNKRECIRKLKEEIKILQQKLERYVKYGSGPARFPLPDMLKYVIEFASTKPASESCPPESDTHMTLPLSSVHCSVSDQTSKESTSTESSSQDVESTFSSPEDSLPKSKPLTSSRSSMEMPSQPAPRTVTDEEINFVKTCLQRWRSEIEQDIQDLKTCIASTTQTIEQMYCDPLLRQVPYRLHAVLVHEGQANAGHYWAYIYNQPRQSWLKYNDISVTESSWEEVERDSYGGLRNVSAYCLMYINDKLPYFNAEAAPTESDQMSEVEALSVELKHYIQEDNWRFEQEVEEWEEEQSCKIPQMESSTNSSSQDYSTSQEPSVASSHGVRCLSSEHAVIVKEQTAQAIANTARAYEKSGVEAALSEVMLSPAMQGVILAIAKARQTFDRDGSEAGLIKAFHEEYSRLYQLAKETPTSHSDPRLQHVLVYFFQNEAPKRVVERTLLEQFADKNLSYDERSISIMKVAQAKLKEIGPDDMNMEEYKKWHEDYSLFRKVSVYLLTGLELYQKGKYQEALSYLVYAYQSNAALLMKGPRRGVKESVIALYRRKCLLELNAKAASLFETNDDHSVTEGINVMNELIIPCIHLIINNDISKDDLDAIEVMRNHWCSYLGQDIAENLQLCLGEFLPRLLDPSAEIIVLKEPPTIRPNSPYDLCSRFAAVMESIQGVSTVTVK

HCT-116 = assay: Antiproliferative activity against human HCT-116 cells assessed as reduction in cell viability incubated for 48 hrs by MTT assay; type: functional, cell-based; details: HCT-116, 48 h
[2] = molecular target: T3, Ubiquitin carboxyl-terminal hydrolase 19 (Homo sapiens, UniProt O94966); assay: Inhibition of C-terminal 6-His tagged USP19 (unknown origin) (1 to 1290 residues) using Ub-Rh110MP as substrate by fluorescence based assay
T3 sequence (O94966 whole entry): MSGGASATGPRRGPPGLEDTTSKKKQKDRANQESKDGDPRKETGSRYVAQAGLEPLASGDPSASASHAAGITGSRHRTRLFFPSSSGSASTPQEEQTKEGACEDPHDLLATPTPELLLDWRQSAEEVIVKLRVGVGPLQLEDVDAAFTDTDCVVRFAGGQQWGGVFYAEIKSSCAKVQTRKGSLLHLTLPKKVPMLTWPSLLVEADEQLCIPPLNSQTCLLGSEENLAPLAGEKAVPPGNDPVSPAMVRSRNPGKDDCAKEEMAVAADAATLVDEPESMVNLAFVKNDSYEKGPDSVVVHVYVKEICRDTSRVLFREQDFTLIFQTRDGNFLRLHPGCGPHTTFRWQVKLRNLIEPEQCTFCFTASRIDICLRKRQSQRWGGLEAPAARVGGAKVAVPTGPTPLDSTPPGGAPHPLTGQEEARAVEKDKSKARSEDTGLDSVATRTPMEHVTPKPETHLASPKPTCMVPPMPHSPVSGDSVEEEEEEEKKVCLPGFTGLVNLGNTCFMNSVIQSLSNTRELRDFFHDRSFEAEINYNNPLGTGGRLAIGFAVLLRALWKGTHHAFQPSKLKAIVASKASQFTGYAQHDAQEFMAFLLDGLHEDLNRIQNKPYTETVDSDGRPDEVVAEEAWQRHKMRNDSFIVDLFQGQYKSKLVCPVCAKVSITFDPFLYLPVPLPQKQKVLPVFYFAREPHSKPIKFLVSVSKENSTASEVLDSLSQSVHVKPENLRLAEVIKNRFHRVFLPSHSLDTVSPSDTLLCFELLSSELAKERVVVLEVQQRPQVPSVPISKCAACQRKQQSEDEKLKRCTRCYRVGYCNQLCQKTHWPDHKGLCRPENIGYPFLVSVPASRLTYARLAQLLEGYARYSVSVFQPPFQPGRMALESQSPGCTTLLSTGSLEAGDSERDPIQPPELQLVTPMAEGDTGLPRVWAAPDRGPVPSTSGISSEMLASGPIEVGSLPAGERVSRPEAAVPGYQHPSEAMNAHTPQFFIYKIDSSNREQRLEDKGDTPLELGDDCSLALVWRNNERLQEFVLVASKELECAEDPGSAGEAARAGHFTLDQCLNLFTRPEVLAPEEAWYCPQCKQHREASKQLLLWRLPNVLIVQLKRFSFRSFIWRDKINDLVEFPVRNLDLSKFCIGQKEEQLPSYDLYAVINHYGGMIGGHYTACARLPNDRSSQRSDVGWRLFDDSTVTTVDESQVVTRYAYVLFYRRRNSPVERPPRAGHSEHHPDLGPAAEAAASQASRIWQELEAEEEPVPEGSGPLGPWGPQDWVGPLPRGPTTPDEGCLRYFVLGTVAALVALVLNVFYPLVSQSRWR

[3] = molecular target: Ubiquitin carboxyl-terminal hydrolase 7 (Homo sapiens, UniProt Q93009); assay: Inhibition of full length His-tagged human recombinant USP7
[4] = molecular target: T4, Ubiquitin carboxyl-terminal hydrolase isozyme L1 (Homo sapiens, UniProt P09936); assay: Inhibition of human UCH-L1
T4 sequence (P09936 whole entry): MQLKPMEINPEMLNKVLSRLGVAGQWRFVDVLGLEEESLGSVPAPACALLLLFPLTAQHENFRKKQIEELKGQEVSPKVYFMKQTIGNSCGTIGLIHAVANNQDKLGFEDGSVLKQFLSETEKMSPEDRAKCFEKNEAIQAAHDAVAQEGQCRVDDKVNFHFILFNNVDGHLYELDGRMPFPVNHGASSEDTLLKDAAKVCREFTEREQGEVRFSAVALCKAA

[5] = molecular target: T4, Ubiquitin carboxyl-terminal hydrolase isozyme L1; assay: Inhibition of His-tagged UCH-L1 (unknown origin) expressed in Escherichia coli BL21 (DE3) by fluorescence based analysis
[6] = molecular target: T4, Ubiquitin carboxyl-terminal hydrolase isozyme L1; assay: Inhibition of recombinant wild type UCH-L1 (unknown origin) by fluorescence based analysis

Chain of Ubiquitin carboxyl-terminal hydrolase 7 (Q93009 whole entry): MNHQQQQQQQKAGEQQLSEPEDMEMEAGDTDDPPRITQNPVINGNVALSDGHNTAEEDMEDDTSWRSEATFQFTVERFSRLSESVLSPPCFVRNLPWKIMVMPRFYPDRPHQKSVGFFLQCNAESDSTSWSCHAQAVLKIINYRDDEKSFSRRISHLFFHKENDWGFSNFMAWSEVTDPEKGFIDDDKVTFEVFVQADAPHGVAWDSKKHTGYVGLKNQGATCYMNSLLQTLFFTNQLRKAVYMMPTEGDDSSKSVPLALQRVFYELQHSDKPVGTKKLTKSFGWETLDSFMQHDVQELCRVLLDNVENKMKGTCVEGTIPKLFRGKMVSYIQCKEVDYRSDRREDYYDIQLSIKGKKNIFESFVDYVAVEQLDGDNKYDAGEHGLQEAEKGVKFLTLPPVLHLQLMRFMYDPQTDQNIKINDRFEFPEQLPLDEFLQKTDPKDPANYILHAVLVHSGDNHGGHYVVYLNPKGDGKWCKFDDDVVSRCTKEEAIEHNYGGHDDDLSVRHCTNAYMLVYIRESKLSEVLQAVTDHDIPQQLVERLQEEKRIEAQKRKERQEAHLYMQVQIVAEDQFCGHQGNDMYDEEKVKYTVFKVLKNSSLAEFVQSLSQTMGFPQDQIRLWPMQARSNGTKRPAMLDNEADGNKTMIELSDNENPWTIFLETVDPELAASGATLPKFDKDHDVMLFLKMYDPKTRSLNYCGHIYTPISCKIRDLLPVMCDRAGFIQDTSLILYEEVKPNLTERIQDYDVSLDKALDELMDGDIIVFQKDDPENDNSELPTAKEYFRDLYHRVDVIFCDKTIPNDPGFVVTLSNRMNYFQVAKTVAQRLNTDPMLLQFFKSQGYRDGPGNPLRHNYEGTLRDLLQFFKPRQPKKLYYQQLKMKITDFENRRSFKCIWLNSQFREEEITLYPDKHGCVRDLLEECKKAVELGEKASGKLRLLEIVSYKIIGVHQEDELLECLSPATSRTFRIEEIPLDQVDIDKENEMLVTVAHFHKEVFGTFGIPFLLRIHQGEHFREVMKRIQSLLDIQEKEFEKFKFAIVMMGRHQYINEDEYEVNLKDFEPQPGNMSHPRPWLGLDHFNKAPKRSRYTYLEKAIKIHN

Compound: C=CC(=O)N1C/C(=C\c2ccc([N+](=O)[O-])cc2)C(=O)/C(=C/c2ccc([N+](=O)[O-])cc2)C1
IC50 (Caspase-3): 1050 nM

Compound: C=CC(=O)N1CC/C(=C\c2ccc(F)c([N+](=O)[O-])c2)C(=O)/C(=C/c2ccc(F)c([N+](=O)[O-])c2)C1
IC50 (Caspase-3): 580 nM

Compound: O=C(CCc1ccccc1)N1CCC(O)(Cn2cnc3cc(Cl)ccc3c2=O)CC1
IC50 [3]: 193 nM

Compound: COC(=O)CC[C@H](NC(=O)[C@H](C)NC[C@@H](NC(=O)OCc1ccccc1)C(C)C)C(=O)CF
IC50 [5]: 7700 nM

Compound: N#CN1CCC[C@H]1C(=O)N1CCc2c(-c3cn[nH]c3C(F)(F)F)cccc21
IC50 [6]: 670 nM

Other lines, results leading:

IC50 [1]: 29600 nM
Compound: OCCNCc1cc(Br)ccc1OCc1ccccc1

IC50 (HCT-116): 1100 nM
Compound: Cc1ccc(S(=O)(=O)Nc2cc(C(F)(F)F)ccc2C(=O)Nc2nc(-c3ccccc3)cs2)cc1

IC50 [2]: 880 nM
Compound: O=C1c2ccccc2C(=O)c2oc(-c3ccc(F)cc3)nc21

IC50 [2]: 544 nM
Compound: O=C1c2ccccc2C(=O)c2oc(-c3ccccc3)nc21

IC50 [4]: 15000 nM
Compound: CCc1ccc(S(=O)(=O)Nc2ccc(-c3ccc(NS(=O)(=O)c4ccc(CC)cc4)cc3)cc2)cc1
